This is an account of results in patent EP1541694A1, “Methods of identifying, selecting and/or characterizing compounds which modulate the activity of a Src family kinase” (Sirenade Pharmaceuticals AG, priority 2003, dated 2005).

Common to all, as to type: cell-based, human
The subject of experiment [1] is Src-KA expressing ZM76 cell lines. Nature of the experiment: Suppression of tet-induced phenotype changes, evaluated by eye/microscope, normal cell culture plates. To be noted: adherent, serum-containing medium + EGF, PP1-Chr. and PP2 shown as combination. The protocol:
(§1) Phenotype changes -tet → +tet were evaluated in 24-well plates (Nunc; cat.no. 143982) under the following several different growth conditions to identify the strongest possible response (Δpt(-tet→+tet)max) 1. full (10% serum containing) growth medium a) without any growth factor supplement (-), b) with epidermal growth factor (EGF; 100ng/ml) (cat.no. 115, Research Diagnostics Inc. (RDI), Flanders, NJ, USA) or c) platelet derived growth factor type BB (PDGF-BB; 30ng/ml) (cat.no. 114b, RDI) or d) hepatocyte growth factor (HGF; 20ng/ml) (RDI, cat.no.300-010), or 2. serum-free medium a) - or b) +EGF or c) +PDGF or d) +HGF. In all cases, cells were first seeded into standard 24-well or 96-well plates (Nunc) in full growth medium. The cell number seeded per well was also varied to identify the most suitable cell densities producing Δpt(-tet→+tet)max. […]
(§2) To that end, the test compounds PP1-Chr., PP2 (cat.no. 529573, Calbiochem) and SU6656 (cat.no. 572635, Calbiochem) (see Fig.9p for chemical structures) were individually added to the cells together with tet, and the development of the phenotype changes in the presence of these compounds was monitored subsequently in direct comparison with cells that received no compound or only vehicle (0.2% DMSO) together with tet induction. […]

In the next experiment the test system is ZM75.7 (Src). Nature of the experiment: MTS and ATP cell viability/metabolic activity assays, suppression of tet-induced reduction. To be noted: 3 days after tet/compound addition. From the text: To proof the concept of the assay platform according to the invention in a quantitative manner with a highly parallel readout, the following cell viability / metabolic activity assays from Promega according to the manufacturer's protocols: "CellTiter 96 AQueous One Solution Cell Proliferation Assay (MTS)", CellTiter-Blue™ Cell Viability Assay (CTB), and the ATP-status assay "CellTiter-Glo Luminescent Cell Viability Assay" (ATP) were used to obtain quantitative values reflecting (aspects of) the phenotype changes.
The cells were seeded into white-walled/ clear bottom 96-well plates ["MICROTEST" by Falcon, cat.no. […] Measurements were taken 1,2 and 3 days later using the Wallac Victor^2™ multilabel plate reader (Perkin Elmer). Absorbance was measured at 490nm (MTS). Luminescence mode was used for the ATP assay. For CTB fluorescence excitation wavelength was 550nm (filter: 550(20)nm), emission wavelength was 590 nm (filter: 590(20)nm). […]
Three more parameters reflecting the effects of compounds on cell viability/metabolic activity in these assays are indicated in Tab.3 and Tab.4: Toxicity reflects the nonspecific (i.e. irrespective of tet-induced Src/ Src mutant expression) effects of a compound on the viability/ metabolic activity of the cells. It is calculated as toxicity=1-mean(-tet, compound)/mean(-tet,(DMSO)). […]

Experiment [2] has as its system Src-TQ expressing ZM78 cell lines. Put plainly: Suppression of tet-induced phenotype changes, evaluated by eye/microscope, normal cell culture plates. To be noted: adherent. The protocol:
as §1, §2

On to `CC(C)(C)n1nc(-c2ccc(Cl)cc2)c2c(N)ncnc21` [PP2], for which the results for the “suppression of tet-induced phenotype changes” value in experiment [1] and in experiment [2] were “not able to suppress” and “ineffective”, respectively. The “suppression effects on ZM75.7” value in the experiment on ZM75.7 (Src) is “detected”.
